Experimental data: patent publication US4173647A, “4-Spectinomycylamine and salts thereof” (Boehringer Ingelheim GmbH, priority 1977, dated 1979)
≈ marks a conversion by molar mass, not a printed value.

Assays:
[1] = system: Escherichia coli ATCC 9637; test: series-dilution assay in the microtiter system, bacteriostasis; assay type: cell-based; conditions: ATCC9637, pH 6.7, read-out: Minimum inhibiting concentration
Method: (§1) 4-R-Spectinomycylamine of the formula I was tested in comparison with the known antibiotic spectinomycin with regard to its effectiveness against Staphylococcus aureus SG 511, Streptococcus aronson, Escherichia coli ATCC 9637, Pseudomonas aeruginosa, Serratia marcescens ATCC 13 880, Klebsiella pneumoniae ATCC 10 031, Proteus mirabilis and Proteus vulgaris, and with regard to acute toxicity.
(§2) For these tests the method of the series-dilution essay in the microtiter system was used. The substances were tested in a fluid medium with regard to bacteriostasis. The effectiveness of the bacteriostasis was tested at the following concentrations: 80, 40, 20, 10, 5, 2.5, 1.25, 0.6 and 0.3 μgm/ml. A bouillon consisting of 5 gm of peptone, 3 gm of meat extract, filled up to a volume of 1000 ml with distilled water served as nutriant; pH-value 6.7. The age of the primary cultures was 24 hours. The adjustment of the microorganism suspension was carried out with a photometer (according to Eppendorf) (diameter of the test tube 14 mm, filter 546 nm) by comparison with the turbidity of a barium sulfate comparison suspension produced by a suspension of barium sulfate which was prepared by addition of 3.0 ml of 1% barium chloride solution on 97 ml of 1% sulfuric acid. After the adjustment streptococcus aronson was diluted 1:150 and the remaining test microorganisms were further diluted with sodium chloride solution in the proportion of 1:1500.
(§3) 16 mgm of the test substance was weighed in 10 ml measuring flasks and filled up with the solvent until the mark was reached. The further dilution series was prepared with distilled water or with the respective solvent.
(§4) 0.2 ml of nutrient medium, 0.01 ml of the corresponding test substance dilution and 1 drop of the microorganism suspension were placed into the cavities of the microtiter plates and incubated for 18 to 20 hours at 37° C. A solvent control batch was always treated in like manner at the same time.
(§5) The reading was effected macroscopically, whereby the respective threshold concentration (=lowest still bacteriostatically effective concentration) was determined.

[2] = system: Klebsiella pneumoniae ATCC 10 031; test: as above; assay type: cell-based; conditions: ATCC10, 18 to 20 hours at 37° C., pH 6.7, lowest still bacteriostatically effective concentration, read-out: Minimum inhibiting concentration
Method: as §1, §2, §3, §4, §5

[3] = system: Proteus mirabilis; test: as above; assay type: cell-based; conditions: 18 to 20 hours at 37° C., pH 6.7, lowest still bacteriostatically effective concentration, read-out: Minimum inhibiting concentration
Method: as §1, §2, §3, §4, §5

[4] = system: Proteus vulgaris; test: as above; assay type: cell-based; conditions: 18 to 20 hours at 37° C., pH 6.7, lowest still bacteriostatically effective concentration, read-out: Minimum inhibiting concentration
Method: as §1, §2, §3, §4, §5

[5] = system: Pseudomonas aeruginosa; test: as above; assay type: cell-based; conditions: pH 6.7, read-out: Minimum inhibiting concentration
Method: as §1, §2, §3, §4, §5

[6] = system: Serratia marcescens ATCC 13 880; test: as above; assay type: cell-based; conditions: ATCC13, pH 6.7, read-out: Minimum inhibiting concentration
Method: as §1, §2, §3, §4, §5

[7] = system: Staphylococcus aureus SG 511; test: as above; assay type: cell-based; conditions: SG511, 18 to 20 hours at 37° C., pH 6.7, lowest still bacteriostatically effective concentration, read-out: Minimum inhibiting concentration
Method: as §1, §2, §3, §4, §5

[8] = system: Streptococcus aronson; test: as above; assay type: cell-based; conditions: 18 to 20 hours at 37° C., pH 6.7, lowest still bacteriostatically effective concentration, read-out: Minimum inhibiting concentration
Method: as §1, §2, §3, §4, §5

[9] = antimicrobial activity (general statement, in vitro and in warm-blooded animals such as mice)

Row | SMILES | MIC [1] | MIC [2] | MIC [3] | MIC [4] | MIC [5] | MIC [6] | MIC [7] | MIC [8] | antimicrobial properties (in words) [9]
1 | CNC1C(O)C(NC)C2OC3(O)C(N)CC(C)OC3OC2C1O (centres unmarked) [4-R-Spectinomycylamine] | 20 µg/mL (≈ 60 µM) | 10 µg/mL (≈ 30 µM) | 10 µg/mL (≈ 30 µM) | 5 µg/mL (≈ 15 µM) | 40 µg/mL (≈ 120 µM) | 10 µg/mL (≈ 30 µM) | 5 µg/mL (≈ 15 µM) | 5 µg/mL (≈ 15 µM) | especially pronounced
2 | CN[C@@H]1[C@H](O)[C@H](NC)[C@H]2O[C@@]3(O)C(=O)C[C@@H](C)O[C@H]3O[C@@H]2[C@H]1O [Spectinomycin, spectinomycin, reference compound] | 40 µg/mL (≈ 120 µM) | 20 µg/mL (≈ 60.2 µM) | 10 µg/mL (≈ 30.1 µM) | 10 µg/mL (≈ 30.1 µM) | 160 µg/mL (≈ 481 µM) | 20 µg/mL (≈ 60.2 µM) | 20 µg/mL (≈ 60.2 µM) | 10 µg/mL (≈ 30.1 µM) | –
